Values after ≈ are worked out from the molar mass of the structure shown. “Also recorded” adds a separate entry of the source. Read-outs that look alike come from different tables or passages of the source.
Legend:
[1] = biological target: rat intestinal maltase; experiment: In vitro α-glucosidase inhibition assay, rat intestinal maltase; type: biochemical; settings: for IC50: rat small intestinal brush border membrane vesicles, maltose substrate, mean ± SD (n = 3), read-out: IC50 against maltase
Protocol: (§1) The testing method previously described was modified and used. Thus, rat small intestinal brush border membrane vesicles were first prepared, and its suspension in 0.1 M maleate buffer (pH = 6.0) was used as small intestinal α-glucosidases of maltase and sucrase. A test compound was dissolved in dimethylsulfoxide (DMSO), and the resulting solution was diluted with 0.1 M maleate buffer to prepare the test compound solution (concentration of DMSO: 10%). The substrate solution in maleate buffer ([…], 50 μL), a test compound solution (25 μL), and the enzyme solution (25 μL) were mixed and incubated at 37 °C for 30 min. After incubation, the solution was immediately heated by boiling water for 2 min to stop the reaction, and the solution was mixed with water (150 μL). Glucose concentration was determined by the glucose-oxidase method. […] The IC50 value was determined graphically by a plot of percent inhibition versus log of the test compound.

[2] = biological target: T1, rat intestinal sucrase (Rattus norvegicus, UniProt P23739); experiment: In vitro α-glucosidase inhibition assay, rat intestinal sucrase; type: biochemical
T1 construct: rat small intestinal brush border membrane vesicles were first prepared; from tissue; host or cells: rat small intestine, brush border membrane vesicles
Protocol: as §1

[3] = biological target: rat intestinal maltase; settings: read-out: IC50 against maltase (converted), cited from earlier work
[4] = biological target: T1, rat intestinal sucrase; settings: literature value; read-out: IC50 against sucrase (converted); cited from earlier work
[5] = system: maltose-loaded mice; experiment: Maltose loading test (hypoglycemic effect); type: in vivo, ICR mice; settings: maltose loading 2.0 g/kg, 1.0 mpk; for Declined Rate of Blood Glucose Levels, 60 min / Declined Rate of AUC: 1 mg/kg
Protocol: A maltose loading test on compounds 10, 20c, neoponkoranol, and positive control (voglibose) was conducted to further evaluate their in vivo hypoglycemic effects against maltase.
The animal experimental protocols in this study were approved by the Experimental Animal Center of Shanghai Institute of Materia Medica (Shanghai, China). Male ICR (Institute of Cancer Research) mice (29−33 g) after an overnight fast were used for acute maltose and sucrose loading tests. […] A control group was loaded with distillation−distillation water. In the sucrose loading test, sucrose (2.5 g/kg of body weight) and the inhibitor miglitol were dissolved in distillation−distillation water and administered to the mice via a stomach tube. A control group was loaded with distillation−distillation water. Blood samples for glucose measurements were obtained from the tail vein at 0, 15, 30, 60, and 120 min after maltose and sucrose loading. The blood glucose levels were measured by a portable kit, StatStrip Xpress (Nova Biomedical Co., Ltd., Waltham, MA, USA). The AUC over was calculated by the trapezoidal method.

[6] = biological target: rat intestinal maltase; experiment: Inhibition-kinetic study (Lineweaver–Burk), maltase; type: biochemical; settings: for Ki Maltase (Km = 3.0 mM): small intestinal α-glucosidase, Lineweaver–Burk; for type of inhibition, maltase: Lineweaver–Burk plots
Protocol: (§2) In order to explore the inhibitory mechanism of the α-glucosidase by this family of compounds, enzyme kinetic assays were conducted on 20a, 20c, and 10, followed by a detailed kinetic analysis using the Lineweaver–Burk plots. (Figure 3) The small intestinal brush border membrane vesicles were incubated with varying concentrations of maltose (3.27 mg/mL) for maltase assays and sucrose (52.37 mg/mL) for sucrase assays.
(§3) For kinetic analyses of maltase and sucrase by compounds (20a, 20c, and 10), the enzyme and test samples (1.0 mg/mL for maltase and 0.2 mg/mL for sucrase) were incubated with increasing concentrations of maltose (2.5, 5, 10, 20, 50, 100 μM) and sucrose (5, 10, 20, 50, 100, 1000 μM) at 37 °C for 30 min. The tube was immediately immersed in boiling water for 2 min to stop the reaction, then cooled with water. The glucose concentration was determined by the glucose-oxidase method. […] The Lineweaver–Burk equation follows as: 1/V=Km/Vmax×[…]
(§4) Ki values for each inhibitor were determined by the equation: Ki=[I]×Km/[[…]−Km]

[7] = system: sucrose-loaded mice; experiment: Sucrose loading test (hypoglycemic effect); type: in vivo, ICR mice; settings: sucrose loading […] p.o.
Protocol: Research has shown a strong association between the 2 h postprandial blood glucose level and the risk of cardiovascular events, diabetic microvascular complications such as retinopathy, and the progression of macrovascular diseases. […] Considering this underlying pathological process, α-glucosidase inhibitors, which efficiently regulate postprandial glucose fluctuations, hold significant therapeutic promise for alleviating diabetes-related complications. […] Subsequently, doses were reduced to 1.0 mg/kg.
The animal experimental protocols in this study were approved by the Experimental Animal Center of Shanghai Institute of Materia Medica (Shanghai, China). Male ICR (Institute of Cancer Research) mice (29−33 g) after an overnight fast were used for acute maltose and sucrose loading tests. In the maltose loading test, maltose ([…] of body weight) and the inhibitors and voglibose were dissolved in distillation−distillation water and administered to the mice via a stomach tube. A control group was loaded with distillation−distillation water. In the sucrose loading test, sucrose (2.5 g/kg of body weight) and the inhibitor miglitol were dissolved in distillation−distillation water and administered to the mice via a stomach tube. A control group was loaded with distillation−distillation water. Blood samples for glucose measurements were obtained from the tail vein at 0, 15, 30, 60, and 120 min after maltose and sucrose loading. The blood glucose levels were measured by a portable kit, StatStrip Xpress (Nova Biomedical Co., Ltd., Waltham, MA, USA). The AUC over was calculated by the trapezoidal method.

[8] = biological target: T1, rat intestinal sucrase; experiment: Inhibition-kinetic study (Lineweaver–Burk), sucrase; type: biochemical; settings: for type of inhibition, sucrase: Lineweaver–Burk plots
Protocol: as §2, §3, §4

[9] = system: HELF, a human embryonic lung fibroblast cell line; experiment: MTT cytotoxicity assay on HELF cells; type: cell-based; settings: for IC50: Homo sapiens, HELF, read-out: IC50 against normal cell line HELF; for cytotoxicity (MTT assay): different cell lines
Protocol: (§5) The cytotoxicity of selected sulfonium salts (20a, 20c, and 10) was then evaluated via the 3-[4,5-dimethylthiazol-2-yl]-2,5-diphenyl-tetrazolium bromide (MTT) assay against different cell lines.
Briefly, the HELF-adherent cells were cultured in a 96-well plate overnight in a CO2 environment at 37 °C. Supernatant was removed, and 100 μL serially diluted compounds with complete medium DMEM supplemented with 10% (v/v) fetal bovine serum, penicillin (100 units/mL), and streptomycin (100 μg/mL) were added to each well. After the incubation, the culture medium was aspirated carefully, and 50 μL of MTT solution (2mg/mL PBS) was added to each well and further incubated for 4h. After this, MTT solution was aspirated, and cells were PBS-washed once, and 100 μL of DMSO was added to dissolve the blue insoluble MTT formazan produced by the action of mitochondrial dehydrogenase. The plate was agitated at room temperature for 15 min and then read at 570 nm by using a microplate reader. The percentage of viable cells was calculated as the relative ratio of optical densities.

[10] = system: LO2; experiment: Cytotoxicity against normal cell line LO2; type: cell-based; settings: Homo sapiens, L02
Protocol: as §5
(§6) Compounds HELF LO2 Primary Hepatocyte
(§7) (1 picture or pasted object on this page, not shown here)

[11] = system: Primary Hepatocyte; experiment: Cytotoxicity against Primary Hepatocyte; type: cell-based
Protocol: as §5, §6, §7

[12] = rat small intestinal brush border membrane vesicles, sucrose substrate, mean ± SD (n = 3), read-out: IC50 against sucrase

T1 sequence (P23739 whole entry): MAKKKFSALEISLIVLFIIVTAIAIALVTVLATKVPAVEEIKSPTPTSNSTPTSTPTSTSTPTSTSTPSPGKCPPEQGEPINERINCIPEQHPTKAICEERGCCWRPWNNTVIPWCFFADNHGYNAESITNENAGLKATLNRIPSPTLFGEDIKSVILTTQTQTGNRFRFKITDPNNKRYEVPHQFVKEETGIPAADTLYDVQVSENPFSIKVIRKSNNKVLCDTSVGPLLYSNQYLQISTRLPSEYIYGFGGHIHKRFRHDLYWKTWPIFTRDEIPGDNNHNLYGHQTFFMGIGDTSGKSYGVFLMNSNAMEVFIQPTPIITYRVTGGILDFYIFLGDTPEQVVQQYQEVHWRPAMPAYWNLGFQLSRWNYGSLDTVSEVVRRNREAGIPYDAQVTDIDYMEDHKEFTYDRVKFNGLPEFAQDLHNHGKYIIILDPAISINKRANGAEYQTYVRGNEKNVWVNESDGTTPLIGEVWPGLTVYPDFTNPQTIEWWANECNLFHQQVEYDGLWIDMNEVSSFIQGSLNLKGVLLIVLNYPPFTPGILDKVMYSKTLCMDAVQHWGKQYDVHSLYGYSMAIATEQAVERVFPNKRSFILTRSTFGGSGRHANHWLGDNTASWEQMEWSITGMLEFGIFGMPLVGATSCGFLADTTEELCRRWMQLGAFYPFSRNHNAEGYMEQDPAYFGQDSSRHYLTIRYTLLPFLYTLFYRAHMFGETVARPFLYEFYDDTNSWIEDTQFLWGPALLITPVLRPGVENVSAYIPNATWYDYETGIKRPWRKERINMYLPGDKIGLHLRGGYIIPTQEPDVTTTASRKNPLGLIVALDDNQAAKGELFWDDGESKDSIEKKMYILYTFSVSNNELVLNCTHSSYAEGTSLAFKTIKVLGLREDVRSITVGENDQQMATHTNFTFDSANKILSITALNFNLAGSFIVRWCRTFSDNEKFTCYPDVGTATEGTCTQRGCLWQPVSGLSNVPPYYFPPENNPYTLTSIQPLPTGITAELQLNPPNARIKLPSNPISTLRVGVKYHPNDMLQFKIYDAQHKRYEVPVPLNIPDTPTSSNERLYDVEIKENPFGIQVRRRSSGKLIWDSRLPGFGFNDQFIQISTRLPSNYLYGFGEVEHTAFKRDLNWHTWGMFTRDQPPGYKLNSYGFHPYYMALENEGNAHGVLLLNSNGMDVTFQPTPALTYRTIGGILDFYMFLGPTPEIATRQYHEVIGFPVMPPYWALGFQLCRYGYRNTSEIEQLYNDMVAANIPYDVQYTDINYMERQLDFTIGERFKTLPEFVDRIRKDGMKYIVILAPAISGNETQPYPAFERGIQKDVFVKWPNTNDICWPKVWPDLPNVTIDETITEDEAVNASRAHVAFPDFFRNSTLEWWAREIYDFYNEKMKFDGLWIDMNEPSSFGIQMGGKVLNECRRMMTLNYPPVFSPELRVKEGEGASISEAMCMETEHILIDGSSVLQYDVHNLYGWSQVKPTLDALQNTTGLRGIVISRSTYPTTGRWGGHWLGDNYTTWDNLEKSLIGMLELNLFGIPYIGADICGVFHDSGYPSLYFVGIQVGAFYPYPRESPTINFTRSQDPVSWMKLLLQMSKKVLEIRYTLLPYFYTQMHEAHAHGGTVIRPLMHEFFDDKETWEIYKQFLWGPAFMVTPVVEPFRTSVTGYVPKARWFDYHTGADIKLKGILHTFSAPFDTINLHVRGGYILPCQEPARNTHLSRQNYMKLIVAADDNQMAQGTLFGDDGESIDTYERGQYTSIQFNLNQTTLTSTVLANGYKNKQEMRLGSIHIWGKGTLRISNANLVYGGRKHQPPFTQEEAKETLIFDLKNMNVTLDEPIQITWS

SMILES	IC50 [1] [nM]	IC50 [2, 12] [nM]	Declined Rate of Blood Glucose Levels, 15 min [5] [%]	Declined Rate of Blood Glucose Levels, 30 min [5] [%]	Declined Rate of Blood Glucose Levels, 60 min [5] [%]	Declined Rate of AUC [5] [%]	IC50 ([3]; literature value ^[a]) [nM]	Ki Maltase (Km = 3.0 mM) [6] [µg/mL]	IC50 [2] [nM]	type of inhibition, maltase [6]	Ki [8] [nM]	type of inhibition, sucrase [8]	IC50 [9] [nM]	cytotoxicity (MTT assay) [9]	IC50 [10] [nM]	IC50 [11] [nM]	further results
OCC1C(O)C(O)C[S+]1CC(O)C1OC(c2ccccc2F)OCC1O [19n, 1,4-Dideoxy-1,4-{(R)-[5-deoxy-1,3-O-(o-fluorophenylmethylene)-D-arabinitol-5-yl]episulfoniumylidene}-D-arabinitol chloride]	420	550	–	–	–	–	–	–	–	–	–	–	–	–	–	–	IC50 ([3]; literature value): 400 nM; IC50 [4]: 840 nM
OCC(CO)N[C@H]1C[C@](O)(CO)[C@@H](O)[C@H](O)[C@H]1O [voglibose]	1450	350	49.2	53.7	40.1	39.8	1500	–	–	–	–	–	–	–	–	–	–
C[C@H]1O[C@H](O[C@H]2[C@H](O)[C@@H](O)[C@@H](O[C@H]3[C@H](O)[C@@H](O)C(O)O[C@@H]3CO)O[C@@H]2CO)[C@H](O)[C@@H](O)[C@@H]1N[C@H]1C=C(CO)[C@@H](O)[C@H](O)[C@H]1O (stereo partly shown) [acarbose]	3500	–	–	–	–	–	3200	1.98 (≈ 3.07 µM)	–	–	–	–	–	–	–	–	Declined Rate of Blood Glucose Levels, 15 min ([7]; 20.0 mpk, 20 mg/kg): 45.7%; Declined Rate of Blood Glucose Levels, 30 min ([7]; 20.0 mpk, 20 mg/kg): 48.4%; Declined Rate of Blood Glucose Levels, 60 min ([7]; 20.0 mpk): 44.3%; Declined Rate of AUC ([7]; 20.0 mpk, 20 mg/kg): 40.5%
OC[C@@H]1[C@@H](O)[C@H](O)C[Se@+]1C[C@@H](O)[C@H]1OC(c2cc(Cl)ccc2Cl)OC[C@H]1O.[Cl-] (stereo partly drawn) [20c, (1S,2R,3S,4S)-1-((2S)-2-((4S,5R)-2-(2,5-Dichlorophenyl)-5-hydroxy-1,3-dioxan-4-yl)-2-hydroxyethyl)-3,4-dihydroxy-2-(hydroxymethyl)tetrahydro-1H-selenophen-1-ium chloride]	140 ± 50	–	45.8	47.4	43.5	40.2	–	0.67	50 ± 20	fully competitive	381	fully competitive	> 500000	low toxicity; also recorded: non-toxic	> 500000	> 500000	fold greater potency than acarbose, maltase ([1]; IC50 ratio vs acarbose): 25 fold; fold greater potency than acarbose, sucrase ([2]; IC50 ratio vs acarbose): 44 fold; Declined Rate of Blood Glucose Levels, 15 min ([7]; 1.0 mpk): 40.0%; Declined Rate of Blood Glucose Levels, 30 min ([7]; 1.0 mpk): 40.3%; Declined Rate of Blood Glucose Levels, 60 min ([7]; 1.0 mpk): 38.2%; Declined Rate of AUC ([7]; 1.0 mpk): 34.00%; Declined Rate of Blood Glucose Levels, 15 min ([7]; 10.0 mpk, 10 mg/kg): 48.6%; Declined Rate of Blood Glucose Levels, 30 min ([7]; 10.0 mpk, 10 mg/kg): 52.8%; Declined Rate of Blood Glucose Levels, 60 min ([7]; 10.0 mpk, 10 mg/kg): 48.1%; Declined Rate of AUC ([7]; 10.0 mpk, 10 mg/kg): 46.4%
OC[C@@H]1[C@@H](O)[C@H](O)C[Se@+]1C[C@@H](O)[C@H]1OC(c2cccc(Cl)c2Cl)OC[C@H]1O.[Cl-] (stereo partly drawn) [20a, (1S,2R,3S,4S)-1-((2S)-2-((4S,5R)-2-(2,3-Dichlorophenyl)-5-hydroxy-1,3-dioxan-4-yl)-2-hydroxyethyl)-3,4-dihydroxy-2-(hydroxymethyl)tetrahydro-1H-selenophen-1-ium chloride]	330 ± 150	–	–	–	–	–	–	0.94	190 ± 20	fully competitive	934	fully competitive	> 500000	non-toxic	> 500000	> 500000	–

— paper PMC12250965, “Design and Synthesis of Sulfonium and Selenonium Derivatives Bearing 3′,5′-O-Benzylidene Acetal Side Chain Structure as Potent α-Glucosidase Inhibitors” (Molecules, 2025)
